Experimental data from patent publication US8552064B2, “Suramin and derivatives thereof as topical microbicide and contraceptive” (Eastern Virginia Medical School, priority 2005, dated 2013).
Converted amounts (≈) assume the structure as drawn. Like-named read-outs stand apart in the source and are kept apart here.

What was measured:
sperm = test: Sperm progressive motility dose-response and time studies, CASA; type: cell-based, human
[1] = system: human sperm binding to zona pellucida; test: Hemizona assay (HZA), human sperm-zona binding; type: cell-based
Description: The hemizona assay, as described in Burkman L. J., et al., Fertil. Steril., 49: 688-697 (1988), was used to measure the ability of sperm to undergo capacitation and bind to the zona pellucida of an oocyte. Briefly, in this assay, motile normal sperm were separated in media with bovine serum albumin, which triggers capacitation. Human motile sperm were separated using a swim-up technique and incubated with 1 mM suramin or solvent-control medium for 15 minutes in 100 μL medium droplets covered with mineral oil, at 37° C., 5% CO2. Sperm were then incubated with dead oocytes which are surrounded by the zona pellucida, an acellular coating of oocytes. Bisected hemizonae corresponding to one oocyte were placed each in the test (suramin) and control (solvent) droplets and incubated for an additional 4 hours. Sperm-hemizonae complexes were washed extensively and capacitated spermatozoa bound to the outer surface of the zonae and were counted under an inverted microscope. The Hemizona Index (HZI) was calculated by dividing the number of suramin-treated sperm bound to one hemizona by the number of untreated (control) sperm bound to the other hemizona.

HIV-1 IIIB [2] = test: Virus binding inhibition assay VBIA-IIIB in MT-2 cells; type: cell-based
Description: VBIAIIIB: MT-2 cells, compounds and virus (HIV-1 IIIB) were mixed together in 96-well plates and incubated for 2 h at 37° C. At the end of this incubation period, the 96-well plates were centrifuged for 10 minutes and approximately 175 μL of medium was removed using a multichannel pipettor and replaced with 175 μL of fresh media. […] Modulation of virus induced cytopathic effects was measured by determining percent reduction in optical density (O.D.) using an XTT (2,3-bis(2-methoxy-4-nitro-5-sulfophenyl)-5-[phenylamino)carbonyl]-2H-tetrazolium hydroxide) dye reduction assay. Virus-induced cytopathic effects and mechanical artifacts due to media removal were verified by microscopic observations (Anderson R. A., et al., J. Androl., 21: 862-875 (2000)). The results of this assay are provided herein.

HIV-1 IIIB [3] = test: Viral entry inhibition, cell-free HIV-1 IIIB, CD4/coreceptor expressing HeLa cells; type: cell-based; conditions: Human immunodeficiency virus 1, IIIB
[4] = system: HIV-1 transmission from H9-SK1 cells to ME-180 cervical epithelial cells; test: ME-180-based topical microbicide assay (CD4-independent epithelial cell transmission)
Description: ME-180 cervical epithelial cells were plated in the interior wells of a 96-well flat bottom microtiter plate at a density of 5×10^3 cells per well and incubated overnight. Chronically infected H9 cells (H9-SK1) were treated with 200 μg/ml mitomycin C (Sigma) in complete medium for one hour, washed extensively and resuspended at 4×10^5 per ml. […] Antiviral compounds and chronically infected cells (2×10^4 cells) were added to each well containing ME-180 cells and incubated for 6 hours. Following co-cultivation, the monolayer was washed extensively and fresh medium was added. Medium was removed and fresh medium was added at 24 and 48 hours post-infection to remove dead lymphocytes. On day 6 post-infection, supernatant samples were removed and analyzed for virus content by p24 ELISA (Phillips D M et al., 1995, J Virol Methods, March, 52 (1-2): 1-13).

[5] = system: HIV-1 Ba-L in monocyte-derived dendritic cells; test: Infection of T cells by HIV associated to dendritic cells (DC/T assay); type: cell-based; conditions: for EC50: Human immunodeficiency virus 1, Dendritic cell
Description: Monocyte-derived dendritic cells (MO-DC), infected with the NSI/R5 strain Ba-L at 10-3 multiplicity of infection, were cultured alone or with autologous CD4(+) T cells at a ratio 1:1 or 1:10. A dilution series of suramin was added to the MO-DC, 1 hour prior to infection and remained present during infection. After infection, cells were extensively washed and compounds were added at the same concentrations as for the pre-incubation. Medium and compounds were refreshed twice a week. After 2 weeks, HIV Ag was measured in supernatants with ELISA and EC50 values (effective conc. 50%) were calculated using linear regression (Vanham G et al, AIDS 2000, 14: 2299-2311). The results of this assay are provided herein.

HSV-1 = test: HSV plaque assay, HSV-1; type: cell-based; conditions: Human alphaherpesvirus 1; read-out: IC50 against HSV-1
[6] = system: human vaginal cell line (VK2); type: cell-based
Description: Vaginal cytotoxicity was determined by 3-[4,5-dimethylthiazol-2-yl]-2,5-diphenyl tetrazolium bromide (MTT) assay and cytokine assays, both as described in Fichorova R. N. et al., J. Infect. Dis. 184(4): 418-28, 2001). The MTT assay assesses the cytotoxicity of various compounds against cell lines by plating the desired cells prior to exposure to the compounds. On the day of treatment, culture medium was carefully aspirated from the wells and replaced with fresh medium containing the test compound at various concentrations. The cells were incubated with the various compounds for 6 hours, washed with fresh medium and MTT was then added and the plates were incubated at 37° C. for a period of time sufficient to allow MTT to form formazan crystals by reacting with metabolically active cells. The formazan crystals were solubilized overnight at 37° C. in a solution containing 10% SDS in 0.01 M HCl. The absorbance of each well was measured in a microplate reader (Dynex) at 540 nm and a reference wavelength of 690 nm.

[7] = Pharmacokinetics in female rats, intravenous and intravaginal; type: in vivo, rat; conditions: for Vd: read-out: Vdss
Description: Female rats (n=6) were administered with 30 mg of compound per kg in a single I.V. dose in saline or intravaginally, BID, for 5 days, formulated in KY jelly. The selected single dose represented 10 times the estimated human dose (250 mg). […] Following intravenous administration, relatively high concentrations of suramin sodium (mean value=563 μg/mL) were measured in plasma at 1 hour (first time-point) following the onset of dosing. […] The mean volume of distribution was calculated at 147 mL/kg.

[8] = female, rat, plasma, IV: single dose 30 mg/kg
[9] = female, rat, plasma, IVag: 30 mg/kg BID for 5 days

## Cc1ccc(C(=O)Nc2ccc(S(=O)(=O)O)c3cc(S(=O)(=O)O)cc(S(=O)(=O)O)c23)cc1NC(=O)c1cccc(NC(=O)Nc2cccc(C(=O)Nc3cc(C(=O)Nc4ccc(S(=O)(=O)O)c5cc(S(=O)(=O)O)cc(S(=O)(=O)O)c45)ccc3C)c2)c1 [Suramin, 8,8′-(carbonylbis(imino-3,1-phenylenecarbonylimino(4-methyl-3,1-phenylene)carbonylimino))bis-1,3,5-naphthalene trisulfonic acid]
sperm; 1 mM
  sperm motion parameters by CASA: no significant changes in sperm motion parameters
sperm; 7.5 mg/mL
  sperm motion characteristics vs control: did not appear to be significantly different
sperm; 1-10,000 μg/mL or 5-0.07 mM
  sperm progressive motility and membrane integrity vs solvent control: no alteration of sperm progressive movement and viability
sperm; suboptimal doses, prolonged incubation (e.g., 30 min.)
  sperm motility, time-dependent study: no alteration of sperm motility
[1]
  Potency, ZP binding (HZA): High
[1]; 1 mM, n=9
  Hemizona Index (HZI): 0.08±0.01
[1]; Homo sapiens, Sperm, 1 mM
  inhibition at 1000 µM: 92%
HIV-1 IIIB [2]
  Potency, HIV-1 VBIA-IIIb: High
HIV-1 IIIB [2]; Human immunodeficiency virus 1, IIIB, MT2, 72 hours incubation, read-out: IC50 against IIIB, viral entry assay
  IC50: 7.3 µg/mL (≈ 5.63 µM)
HIV-1 IIIB [3]; HeLa, 2 h-incubation, read-out: IC50 against IIIB, viral entry assay
  IC50: 18.5 µg/mL (≈ 14.3 µM)
HIV-1 IIIB [3]; CD4/coreceptor expressing HeLa cells, incubation 2 hours, read-out: IC50, Cell-Free Strains IIIB
  IC50: 18.5 µg/mL (≈ 14.3 µM)
[4]
  Potency, HIV-1 ME-180: High
[4]; Human immunodeficiency virus 1, ME-180, CD4-independent epithelial cell transmission
  IC50: 24.5 µg/mL (≈ 18.9 µM)
[4]; addition of mucin
  effect of mucin on activity in ME-180 assay: did not significantly reduce suramin's activity
[5]
  Potency, HIV-1 DC: High
[5]; Human immunodeficiency virus 1, BAL, Dendritic cell, read-out: IC50 dendritic cell (DC)/T lymphocyte model
  IC50: 17 µg/mL (≈ 13.1 µM)
[5]; DC infected with BaL cultured alone, read-out: EC50, Dendritic Cells (DC)
  EC50: 56 ± 6 µg/mL (≈ 43.2 µM)
[5]; DC infected with BaL with autologous T lymphocytes 1:1, read-out: EC50, DC + T Cells (1:1)
  EC50: 57.5 ± 5 µg/mL
[5]; DC infected with BaL with autologous T lymphocytes 1:10, read-out: EC50, DC + T Cells (1:10)
  EC50: 17 ± 3 µg/mL
HSV-1
  IC50: 30 µg/mL (≈ 23.1 µM)
[6]
  cytotoxicity in comparative study: the least cytotoxic of them all
[7]; 30 mg/kg I.V. or intravaginally BID 5 days
  clinical signs: No clinical signs were observed
[7]; IV: single dose 30 mg/kg, 30 mg/kg
  t½: 68.6 h
[7]; IV: single intravenous dose of 30 mg/kg, female rats, plasma
  Kel: 0.0102
[7]; IVag: 30 mg/kg BID for 5 days, listed as Suramin sodium
  t½: 132 h
[7]; IVag: intravaginal 30 mg/kg BID for 5 days in KY jelly
  Kel: 0.005
[7]; calculated from the total dose (90 mg) administered intravaginally
  bioavailability after intravaginal administration: < 1%
[7]; female rats receiving the intravenous solution
  histological lesions in vagina, lungs, liver and kidneys: No histological lesions were observed
[7]; female, rat, plasma, 30 mg/kg, IVag: 30 mg/kg BID for 5 days, zero to 144 hr post dose, read-out: AUC(tf)
  AUC: 1170 µg·h/mL
[7]; female, rat, plasma, 30 mg/kg, IVag: 30 mg/kg BID for 5 days, zero to infinity, read-out: AUC(I)
  AUC: 2280 µg·h/mL
[7]; female, rat, plasma, 30 mg/kg, intravaginal administration, read-out: mean half-life (converted)
  half-life: ~132 h
[7]; female, rat, plasma, 90 mg, calculated from the total dose (90 mg) administered intravaginally, read-out: bioavailability after intravaginal administration
  bioavailability: 0.8%
[7]; female, rat, plasma, iv, 30 mg/kg, IV: single dose 30 mg/kg, read-out: t½ (converted)
  half-life: 68.5 h
[7]; female, rat, plasma, iv, 30 mg/kg, IV: single dose 30 mg/kg, zero to 144 hr post dose, read-out: AUC(tf)
  AUC: 13900 µg·h/mL
[7]; female, rat, plasma, iv, 30 mg/kg, IV: single dose 30 mg/kg, zero to infinity, read-out: AUC(I)
  AUC: 17300 µg·h/mL
[7]; [8]
  clearance: 0.0292 mL/min
  Vd: 0.147 L/kg
[7]; female, rat, plasma, IV: single intravenous dose of 30 mg/kg, at 1 hour
  Cmax: 563 µg/mL
[7]; [9]
  clearance: 0.0001 mL/min
  Vd: 0.132 L/kg
[7]; female, rat, plasma, IVag: 30 mg/kg BID for 5 days, at 3.5 hours following the last dose
  Cmax: 17.7 µg/mL
